In Sander's compilation of Henry's law constants (doi:10.1093/jxb/48.5.1095):

Test: Henry solubility constant Hcp at 298.15 K (mol/(m3 Pa))
Settings: reference: Merk and Riederer (1997)

Henry solubility constant Hcp	Structure (SMILES)
0.58	CCCCCCO [1-hexanol]
0.77	CCCCCO [1-pentanol]
1.5	CCCO [1-propanol]
0.83	CCC(C)O (stereo not given) [2-butanol]
0.48	CCCCC(C)O (stereo not given) [2-hexanol]
0.78	CC(C)CO [2-methyl-1-propanol]
0.66	CCCC(C)O (stereo not given) [2-pentanol]
1.2	CC(C)O [2-propanol]
1.9	CCO [ethanol]

Structure (SMILES)	Henry solubility constant Hcp
CCC(C)(C)O [2-methyl-2-butanol]	0.7
